Assay [1] concerns tumor cells. Put plainly: HMGB1 release. It counts as cell-based. As to conditions: Supplementary Fig. S4F and G.
Assay [2] concerns tumor cells. Put plainly: Tumor cell death with pan-caspase inhibitor. Type of assay: cell-based. As to conditions: plus cell-permeable MFF peptide #8–11, Supplementary Fig. S4D.
The target in assay [3] is endogenous voltage-dependent anion channel-1 (VDAC1) (human (endogenous in PC3)) (UniProt P21796).

Ends that are not written are not given here. Peptide text beside a SMILES is read from it. * marks the point of attachment. Biotin = O=C1N[C@H]2[C@H](CS[C@H]2CCCCC(=O)*)N1; Cbz = O=C(OCc1ccccc1)*; Ahx = NCCCCCC(=O)O; CH2F = FC*

Sequence of endogenous voltage-dependent anion channel-1 (VDAC1) (human (endogenous in PC3)) (P21796 whole entry): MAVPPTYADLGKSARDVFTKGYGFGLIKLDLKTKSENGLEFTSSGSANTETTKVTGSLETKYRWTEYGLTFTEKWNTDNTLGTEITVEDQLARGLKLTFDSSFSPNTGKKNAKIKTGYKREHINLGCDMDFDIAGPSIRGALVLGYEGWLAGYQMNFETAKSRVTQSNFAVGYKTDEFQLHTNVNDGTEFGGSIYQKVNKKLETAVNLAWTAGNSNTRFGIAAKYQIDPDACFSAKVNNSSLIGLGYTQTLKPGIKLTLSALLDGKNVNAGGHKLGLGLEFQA

“MFF-DD mutant peptide #8–11: MFF peptide #8–11 containing the double mutation Arg225Asp/Arg236Asp (DD) ({Biotin-Ahx}-RQIKIWFQNRRMKSADGILSLIQSSTDRAYQQIL)”: the HMGB1 release entry with tumor cells [1] is reported as “did not cause HMGB1 release”.

With `COC(=O)C[C@H](NC(=O)[C@H](C)NC(=O)[C@@H](NC(=O)OCc1ccccc1)C(C)C)C(=O)CF` [Z-VAD-fmk] (Cbz-Val-Ala-Asp(OMe)-CH2F), the “reversal of cell death induced by cell-permeable MFF peptide #8–11” value with tumor cells [2] is given as “did not significantly reduce tumor cell death”.

B1: cell-permeable MFF peptide #8-11 (peptide)
peptide: {Biotin-Ahx}-RQIKIWFQNRRMKSARGILSLIQSSTRRAYQQIL
The molecule B1 showed an other in assay [3] of 10 µM.
